We go through two molecules from patent US20110015119A1, “NOVEL SEMI-SYNTHETIC GLYCOPEPTIDES AS ANTIBACTERIAL AGENTS” (LEAD THERAPEUTICS, INC., priority 2009, published 2011).

In brackets after ≈: the same amount, converted by molar mass. Like-named read-outs stand apart in the source and are kept apart here.

Common to all, as to type: cell-based
Test [1] has as its system Staphylococcus epidermidis 831 (MRSE). In words: MIC by broth microdilution, SE 831. The settings on record: Staphylococcus epidermidis, MRSE, read-out: MIC SE 831. An outline of the steps:
(§1)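 CLSI-recommended broth microdilution; medium Mueller-Hinton broth.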
(Dilution methods test growth across graded concentrations, often in twofold steps.)

Test [2] deals with Streptococcus pneumoniae 1195 (ATCC 49619). Description: MIC by broth microdilution, SPNE 1195. As to conditions: Streptococcus pneumoniae, ATCC49619, read-out: MIC S PNE 1195. In outline: as §1
The next test relates to Enterococcus faecium 800. In words: MIC by broth microdilution, EFcm 800. As to conditions: Enterococcus faecium, 800, read-out: MIC E FCM 800. An outline of the steps:
as §1

The test system of test [3] is Enterococcus faecalis 848 (VRE, Van A). In words: MIC by broth microdilution, EFc 848. The settings on record: Enterococcus faecalis, VRE, read-out: MIC E FC 848, Enterococcus faecalis 848 (VRE, Van A). An outline of the steps: as §1
The subject of test [4] is Staphylococcus epidermidis 835. Description: MIC by broth microdilution, SE 835. As to conditions: Staphylococcus epidermidis, 835, read-out: MIC SE 835. In outline:
as §1

Test [5] relates to Staphylococcus aureus 757 (MRSA). Description: MIC by broth microdilution, SA 757. As to conditions: Staphylococcus aureus, MRSA, read-out: MIC SA 757. In outline: as §1
Test [6] has as its system Streptococcus pyogenes 712. Description: MIC by broth microdilution, SPY 712. The settings on record: Streptococcus pyogenes, 712, read-out: MIC S PYO 712. In outline:
as §1

Test [7] relates to Enterococcus faecium 752 (VRE, Van A). In words: MIC by broth microdilution, EFcm 752. As to conditions: Enterococcus faecium, VRE, read-out: MIC E FCM 752, Enterococcus faecium 752 (VRE, Van A). An outline of the steps: as §1
Test [8] concerns Staphylococcus aureus 2012 (VISA). Description: MIC by broth microdilution, SA 2012. As to conditions: for MIC: Staphylococcus aureus, VISA, read-out: MIC SA 2012, Staphylococcus aureus 2012 (VISA). In outline:
as §1

Test [9] concerns Staphylococcus aureus 100 (ATCC 29213). In words: MIC by broth microdilution, SA 100. As to conditions: Staphylococcus aureus, ATCC29213, read-out: MIC SA 100. In outline:
as §1

In test [10] the test system is Enterococcus faecalis 101 (ATCC 29212). In words: MIC by broth microdilution, EFc 101. As to conditions: for MIC: Enterococcus faecalis, ATCC29212, read-out: MIC E FC 101, Enterococcus faecalis 101 (ATCC 29212). An outline of the steps:
as §1

The term MIC denotes the smallest concentration in the dilution series that meets the test's criterion for growth inhibition. Regarding `CCCCCOCCNC(=O)Oc1cc(O)c2c(c1)[C@@H](C(=O)NC1C3CC4CC(C3)CC1C4)NC(=O)[C@H]1NC(=O)[C@H](NC(=O)[C@@H]3NC(=O)[C@H](CC(N)=O)NC(=O)[C@H](NC(=O)[C@@H](CC(C)C)NC)[C@H](O)c4ccc(c(Cl)c4)Oc4cc3cc(c4O[C@@H]3O[C@H](CO)[C@@H](O)[C@H](O)[C@H]3O[C@H]3C[C@](C)(N)[C@H](O)[C@H](C)O3)Oc3ccc(cc3Cl)[C@H]1O)c1ccc(O)c-2c1` (stereo partly drawn) [Compound 340], the minimum inhibitory concentration (MIC) lay within 0.01 to 0.5 µg/mL (≈ 0.00575 to 0.287 µM) in test [1]; 0.01 to 0.5 µg/mL (≈ 0.00575 to 0.287 µM) in test [2]; 0.01 to 0.5 µg/mL (≈ 0.00575 to 0.287 µM) with Enterococcus faecium 800; 8 to 16 µg/mL (≈ 4.6 to 9.2 µM) in test [3] (class symbols); 0.01 to 0.5 µg/mL (≈ 0.00575 to 0.287 µM) in test [4]; 0.01 to 0.5 µg/mL (≈ 0.00575 to 0.287 µM) in test [5]. The MIC in test [6] lay in the range of 0.01 to 0.5 µg/mL (≈ 0.00575 to 0.287 µM); in [7] (class symbols), 2 to 4 µg/mL (≈ 1.15 to 2.3 µM); in test [8] (class symbols) it was 0.5 to 1 µg/mL (≈ 0.287 to 0.575 µM); in test [9] it was 0.01 to 0.5 µg/mL (≈ 0.00575 to 0.287 µM); in test [10] (class symbols), 0.01 to 0.5 µg/mL (≈ 0.00575 to 0.287 µM).
Turning to `CN[C@H](CC(C)C)C(=O)N[C@H]1C(=O)N[C@@H](CC(N)=O)C(=O)N[C@H]2C(=O)N[C@H]3C(=O)N[C@H](C(=O)N[C@H](C(=O)O)c4cc(O)cc(O)c4-c4cc3ccc4O)[C@H](O)c3ccc(c(Cl)c3)Oc3cc2cc(c3O[C@@H]2O[C@H](CO)[C@@H](O)[C@H](O)[C@H]2O[C@H]2C[C@](C)(N)[C@H](O)[C@H](C)O2)Oc2ccc(cc2Cl)[C@H]1O` [Vancomycin, vancomycin, reference compound], the MIC in [1] is 2 µg/mL (≈ 1.38 µM); in test [2], 0.25 µg/mL (≈ 0.173 µM); in the test with Enterococcus faecium 800, 1 µg/mL (≈ 0.69 µM); in test [3] (numeric, comparison), greater than 64 µg/mL; in test [4] it was 2 µg/mL (≈ 1.38 µM); in [5], 1 µg/mL (≈ 0.69 µM). In addition, the MIC in [6] is 0.5 µg/mL (≈ 0.345 µM); in test [7] (numeric, comparison), greater than 64 µg/mL; in test [8] (numeric, comparison), 16 µg/mL (≈ 11 µM); in test [9], 1 µg/mL (≈ 0.69 µM); in test [10] (numeric, comparison), 2 µg/mL (≈ 1.38 µM). Besides, in test [8] (Staphylococcus aureus 2012 (VISA), numeric, comparison), the “MIC SA 2012” value was 8 µg/mL (≈ 5.52 µM). Moreover, the “MIC E FC 101” value in test [10] (Enterococcus faecalis 101 (ATCC 29212), numeric, comparison) worked out at 4 µg/mL (≈ 2.76 µM).
